Measured values reported in article PMC8837603, “Lapcin, a potent dual topoisomerase I/II inhibitor discovered by soil metagenome guided total chemical synthesis” (Nature Communications, 2022).

Key:
[1] = test system: Colo205 cells; test: cells; type: cell-based, human; conditions: Homo sapiens, COLO 205; colon cancer; MTT, 48 h, 37 °C; RPMI-1640 + 10% FBS; 2,500 cells/well; absorbance 570 nm; n = 3 biologically independent
Protocol: (§1) An MTT (2-(4,5-dimethylthiazol-2-yl)−2,5-diphenyltetrazolium bromide) assay was used to determine the cytotoxicity of lapcin towards diverse cancer cell lines. Lapcin was dissolved in DMSO to make a 3.2 mg/mL working solution. For each cancer line detailed in Supplementary Table 5, cells at 80-90% confluency were counted and seeded in 96-well, flat bottom microplates and incubated at 37 °C with a 5% CO2 atmosphere. Outer wells were unused to avoid edge effects. After adhering for 24 h, the medium was sterilely aspirated and replaced with 100 µL of fresh medium containing lapcin or a control compound serially diluted at concentrations ranging from 8,000 to 0.00382 ng/mL. After 48 h (37 °C, 5% CO2), the medium was carefully removed and 110 µL of freshly prepared MTT solution (10 µL of 5 mg/mL MTT in PBS (pH 7.4) premixed with 100 µL of complete medium) was added to each well. After 3 h at 37 °C with 5% CO2, 100 µL of solubilization solution (40% DMF, 16% SDS and 2% acetic acid in H2O) was added to each well and precipitated formazan crystals were allowed to dissolve for 4 h. The absorbance of each well was then measured at 570 nm using a Tecan microplate reader.

[2] = test system: HT29 cells; test: cells; type: cell-based, human; conditions: Homo sapiens, HT-29; colon cancer; MTT, 48 h, 37 °C; DMEM + 10% FBS; 2,500 cells/well; absorbance 570 nm; n = 3 biologically independent
Protocol: as §1

[3] = test system: Hela (Cervical) cells; test: cells; type: cell-based, human; conditions: Homo sapiens, HeLa; cervical cancer; MTT, 48 h, 37 °C; DMEM + 10% FBS; 2,500 cells/well; absorbance 570 nm; n = 3 biologically independent
Protocol: as §1

[4] = test system: HCC1806 cells; test: cells; type: cell-based, human; conditions: Homo sapiens, HCC1806; breast cancer; MTT, 48 h, 37 °C; RPMI-1640 + 10% FBS; 2,500 cells/well; absorbance 570 nm; n = 3 biologically independent
Protocol: as §1

[5] = test system: A549 cells; test: cells; type: cell-based, human; conditions: Homo sapiens, A549; lung cancer; MTT, 48 h, 37 °C; DMEM + 10% FBS + NEAA; 2,500 cells/well; absorbance 570 nm; n = 3 biologically independent
Protocol: as §1

[6] = test system: NCI-H226 cells; test: cells; type: cell-based, human; conditions: Homo sapiens, NCI-H226; lung cancer; MTT, 48 h, 37 °C; RPMI-1640 + 10% FBS; 10,000 cells/well; absorbance 570 nm; n = 3 biologically independent
Protocol: as §1

[7] = test system: SW480 cells; test: cells; type: cell-based, human; conditions: Homo sapiens, SW480; colon cancer; MTT, 48 h, 37 °C; DMEM + 10% FBS; 10,000 cells/well; absorbance 570 nm; n = 3 biologically independent
Protocol: as §1

[8] = test system: U2OS (Bone) cells; test: cells; type: cell-based, human; conditions: Homo sapiens, U2OS; bone cancer; MTT, 48 h, 37 °C; DMEM + 10% FBS + NEAA; 2,500 cells/well; absorbance 570 nm; n = 3 biologically independent
Protocol: as §1

[9] = test system: MCF 7 cells; test: cells; type: cell-based, human; conditions: Homo sapiens, MCF7; breast cancer; MTT, 48 h, 37 °C; DMEM + 10% FBS; 8,000 cells/well; absorbance 570 nm; n = 3 biologically independent
Protocol: as §1

[10] = test system: HEK293 cells; test: cells; type: cell-based, human; conditions: Homo sapiens, HEK293; normal cell; MTT, 48 h, 37 °C; DMEM + 10% FBS; 5, 000 cells/well; absorbance 570 nm; n = 3 biologically independent
Protocol: as §1

[11] = test system: HCT116 cells; test: cells; type: cell-based, human; conditions: Homo sapiens, HCT-116; colon cancer; MTT, 48 h, 37 °C; DMEM + 10% FBS; 10,000 cells/well; absorbance 570 nm; n = 3 biologically independent
Protocol: as §1

[12] = test system: NCI-H1299 cells; test: cells; type: cell-based, human; conditions: Homo sapiens, NCI-H1299; lung cancer; MTT, 48 h, 37 °C; RPMI-1640 + 10% FBS; 2,500 cells/well; absorbance 570 nm; n = 3 biologically independent
Protocol: as §1

[13] = test system: bacterial DNA gyrase; conditions: ref [9],[25]; cited from earlier work

In the case of `CC[C@@]1(O)C(=O)OCc2c1cc1n(c2=O)Cc2cc3ccccc3nc2-1` [Camptothecin], the IC50 [1] is reported as 95.7 nM, the IC50 [2] is reported as 22.3 nM and the IC50 [3] is reported as 62.6 nM. The IC50 [4] was 19.6 nM, the IC50 [5] was 17.6 nM and the IC50 [6] was 28.5 nM. It also gave an IC50 [7] of 284 nM, an IC50 [8] of 172 nM and an IC50 [9] of over 29200 nM. It also gave an IC50 [10] of 19.2 nM, an IC50 [11] of 129 nM and an IC50 [12] of 15 nM.
Work on `COc1cc([C@@H]2c3cc4c(cc3[C@@H](O[C@@H]3O[C@@H]5CO[C@@H](C)O[C@H]5[C@H](O)[C@H]3O)[C@H]3COC(=O)[C@H]23)OCO4)cc(OC)c1O` [Etoposide] yielded an IC50 [2] of 9610 nM, an IC50 [3] of 1510 nM and an IC50 [4] of 3330 nM. For the same compound, the IC50 [5] was 79.9 nM, the IC50 [6] was 217 nM and the IC50 [7] was 26900 nM. The IC50 [8] was 1840 nM, the IC50 [9] was 333 nM and the IC50 [10] was 729 nM. For the same compound, the IC50 [11] was over 54400 nM and the IC50 [12] was 716 nM.
For albicidin, the “inhibition of bacterial DNA gyrase” value [13] is given as “inhibit the bacterial DNA gyrase”.
